Key:
C. autoethanogenum [1] = assay: Toxicity to C. autoethanogenum by batch fermentation using syngas substrate, optical density; type: cell-based, Clostridium autoethanogenum; conditions: for O.D. Response of Various Inhibitors on C. autoethanogenum: Table 21, one value per compound; for O.D. Response to Various Inhibitors: duplicates A and B, amount not given
Experimental: In this example various crotonate-like compounds on are evaluated for toxicity to C. autoethanogenum by batch fermentation using syngas substrate. The batch fermentations are conducted by anoxically filling 100 mL serum bottles with 10 mL of media having the composition given in Tables 12 and 13. Duplicate runs are conducted for each concentration. The compounds are: • C-1 Ethyl 4,4,4-trifluoro-3-(trifluoromethyl)crotonate • C-4 4,4,4-Trifluorocrotonamide • C-9 Ethyl 4,4,4-Trifluoro-3-(amino)crotonate • C-18 3 trifluoromethyl-4-methoxybenzoate.
Each bottle is inoculated with 1.0 mL of seed culture inoculum from an active fermenter using syngas substrate and containing Clostridium autoethanogenum, which inoculum has an OD of about 4.92 (which upon a 10 times dilution provides a starting OD for the fermentation of about 0.49). The bottles are gased with syngas to about 100 kilopascals and maintained at a temperature of 37° C. The bottles are regassed with syngas every 8 to 12 hours. The syngas has the approximate composition set forth in Examples 6 to 10. Twenty four hours after inoculation of the bottles with the bacteria, the compounds are added to different bottles as a solution in 50 μL of N-methylpyrrolidone in the amounts indicated in Tables 20 and 21. The fermentation process is allowed to progress at 37° C. At selected intervals of time, bacterial growth is measured by reading the OD of the fermentation liquid using a Thermo Spectronic Genesys 20 spectrophotometer. Optical density is measured by anoxically removing an aliquot of fermentation liquid and adding it to a disposable cuvette. OD's ranging between 0.01 and 0.4 are measured using fermentation liquid directly, while OD's greater than 0.4 are measure after performing a 1/10 dilution with water.

acyl-CoA dehydrogenases = assay: In vitro acyl-CoA dehydrogenase ferrocenium assay with C. tyrobutyricum cell-free extract; type: biochemical; conditions: 0.5 to 10 mM compound; rate of ferrocenium reduction at 300 nm
Experimental: Lehman, et al., in An Acyl-Coenzyme A Dehydrogenase Assay Utilizing the Ferricenium Ion, Analytical Biochemistry 186, pages 280-284 (1990), disclose an in vitro assay screening technique for acyl-CoA dehydrogenases for determining enzyme deficiencies in children. An adaptation of this technique was explored as a potential screening method for ascertaining potential butyrogen inhibitors. An aqueous assay liquor is prepared such that each 1 milliliter sample contains 50 mM of TrisHCl buffer (pH 7.6); 0.05 mM of butyryl-CoA; 5 micromoles of FAD (flavin adenine dinucleotide) and 0.4 mM of ferrocenium. Whole cells of C. tyrobutyricum are lysed and are added to the assay liquor. […] The abbreviation mM stands for millimolar. To assure metabolic consistency among the samples a master batch of C. tyrobutyricum is prepared and harvested at the early log growth stage (approximate O.D. of between about 0.5 and 0.7). The master batch fermentation broth is centrifuged and rinsed with 50 mM TrisHCl buffer (pH 7.6), centrifuged and reconstituted with 50 mM TrisHCl buffer (pH 7.6) to be 10 times more concentrated than the original master batch. Aliquots of about 0.5 milliliter are placed into cryogenic vials (about 1.8 milliliter capacity) and frozen at −80° C. until needed. When needed, a vial is placed in an anoxic Coy chamber and allowed to thaw to room temperature. Once thawed, the cells are added to a 15 mL centrifuge tube and diluted with 0.5 mL of a 2 mg/mL solution of lysozyme (purchased from Aldrich) in 50 mM Tris-HCl (final concentration of lysozyme is about 1 mg/mL). The centrifuge tube is inverted 5 times, removed from the Coy chamber and allowed to incubate at 37° C. for 30 minutes. […] The centrifuge tube is vortexed in the Coy chamber for about 30 seconds, removed from the chamber and centrifuged for 15 minutes at 4000 rpm and 4° C. The tube is returned to the chamber and the cell-free extract (supernatant) is used to prepare the above described samples. The samples are analyzed at various times by absorbance spectroscopy at 300 nm using a Thermo Scientific Evolution 300 UV/Vis spectrophotometer with a 7-cuvette carousel and Starna quartz cuvettes with a septum cap to determine the amount of reduction of ferrocenium. The sample is at laboratory temperature and is maintained under anaerobic conditions. Typically, the absorbance is measured over a period of about 10 to 20 minutes which is sufficient time for the absorbance to stop changing. A linear slope of the rate of change in absorbance during the period that the absorbance is changing is determined using Microsoft Excel® 2010 linear regression to generate a straight line from the data points. The more gradual the slope, the better inhibition because the enzyme is slower at reducing the ferrocenium in the assay sample. A dose-response curve is then determined for each compound by plotting the linear slope against the respective compound concentration. A linear slope is then determined for each compound using Microsoft Excel® 2010 linear regression to generate a straight line from the data points. The steeper the dose-response slope, the better the inhibition because the increased concentration of the compound causes more of a difference in enzyme activity. The dose-response slope generally has a broad standard of deviation due to experimental imprecision and slope determinations.

C. autoethanogenum [2] = assay: Balch tube batch growth of homoacetogen C. autoethanogenum on fructose, optical density; type: cell-based; conditions: added 21 h after inoculation
Experimental: These compounds were first tested to determine their effect on a known homoacetogen. Each compound was tested in a series of batch experiments to determine the growth response of a homoacetogen to the presence of the compound at varying concentrations. The batch experiments were all conducted by anoxically filling a Balch tube with 5 ml of a fermentation medium having the composition given in Tables 2 and 3. To expedite results, these batch experiments used fructose as the growth nutrient source for bacteria. Thus, the media included a 5 g/L of fructose.
Each tube was inoculated with 0.5 ml of the same strain of C. autoethanogenum bacteria seed culture inoculum. The tubes were maintained at a temperature of 37° C. Twenty one hours after the inoculation of the tube with the bacteria, the different crotonate derivatives from Table 1 were added to different tubes in the amounts indicated in Table 4 This was at a time of early to mid-log phase growth for the bacteria. Each fermentation of the bacteria in the media at the different concentration of crotonate derivatives were allowed to progress and were monitored to determine the bacteria growth at selected intervals of time varying from approximately 20 hours to 190 hours. Growth at the intervals was measured by reading the optical density (OD) of the fermentation liquid. Optical density was measured using a Spectronic Spec 20 (Thermo Spectronic) at a wavelength of 600 nm. The OD of the Balch tube culture was measured directly in the tube using absorbance mode on the Spec 20 machine. The machine was set to zero absorbance by first measuring and adjusting the setting to zero absorbance using media only as a blank. This process was repeated at each indicated time point throughout the experiment. The ability of a tube fermentation at a particular concentration of crotonate derivative to reach a predetermined optical density was recorded in Table 4. Table 4 indicates the presence of bacterial growth to an OD of approximately 2 or above with a “+”, and to an optical density in a range of 0.5 to 1.5 as a “+/−”, and indicates the failure of bacterial growth to reach an optical density of approximately 0.5 as a “−”.

[3] = tested on: Clostridium tyrobutyricum; assay: Balch tube batch growth of strict butyrogen Clostridium tyrobutyricum on fructose, optical density; type: cell-based; conditions: added 21 h after inoculation
Experimental: Similar experiments were conducted to make a preliminary determination as to which of the crotonate and crotonate-like compounds would act as butyrogen retardants. For this purpose the selected compounds were tested again in a series of batch experiments to determine the growth response of butyrogens to the presence of the compound at varying concentrations. The batch experiments were all conducted by anoxically filling a 20 ml Balch tube with 5 ml of a fermentation medium having the composition given in Tables 2 and 3. The media included 0.5 v/v final concentration of a fructose substrate. For each of the crotonate concentrations tested, duplicate test tubes were prepared.
Each tube was inoculated with 0.5 ml seed culture inoculum of the strict butyrogen Clostridium tyrobutyricum. The tubes were maintained at a temperature of 37° C. Twenty one hours after the inoculation of the tube with the bacteria, the different compounds from Table 1 were added to different tubes in the amounts indicated in Table 6. This was at a time of early to mid-log phase growth for the bacteria. Each fermentation of the bacteria in the media at the different concentration of crotonate derivatives were allowed to progress and were monitored to determine the bacteria growth at selected intervals of time varying from approximately 20 hours to 54 hours. Growth at the intervals was measured by reading the optical density (OD) of the fermentation liquid. Optical density was measured as described in Example 1. The ability of a tube fermentation at a particular concentration of crotonate derivative to reach a predetermined optical density was recorded in Table 6. Table 6 indicates the presence of bacterial growth to an OD of approximately 1.8 or above with a “+”, and to an optical density in a range of 0.7 to 1.5 as a “+/−”, and indicates the failure of bacterial growth to reach an optical density of approximately 0.7 as a “−”.

[4] = 0 Hours, added 24 h after inoculation
[5] = 2.5 Hours, added 24 h after inoculation
[6] = 6.5 Hours, added 24 h after inoculation
[7] = 24.5 Hours, added 24 h after inoculation

Which “O.D. Response of Various Inhibitors on C. autoethanogenum” value (from here on “O.D. Response of Various Inhibitors”) (C. autoethanogenum [1]; [4]) does the source give for “3 trifluoromethyl-4-methoxybenzoate [Compound C-18]” here?
Its value is 0.49.

What about the “O.D. Response of Various Inhibitors” value (C. autoethanogenum [1]; [5]) of the same molecule?
The value was 0.44.

And the “O.D. Response of Various Inhibitors” value (C. autoethanogenum [1]; [6])?
Its value is 0.44.

And the “O.D. Response of Various Inhibitors” value (C. autoethanogenum [1]; [7])?
Its value is 1.16.

What about the “O.D. Response of Various Inhibitors” value (C. autoethanogenum [1]; 30.5 Hours) of the same molecule?
The value was 1.30.

What about the “O.D. Response of Various Inhibitors” value (C. autoethanogenum [1]; 47.5 Hours) of the same molecule?
The value was 1.74.

And the “O.D. Response of Various Inhibitors” value (C. autoethanogenum [1]; 56 Hours)?
Its value is 1.88.

And the “O.D. Response to Various Inhibitors” value (C. autoethanogenum [1]; [4])?
The value was 0.49.

What about the “O.D. Response to Various Inhibitors” value (C. autoethanogenum [1]; [5]) of the same molecule?
The value was 0.47.

And the “O.D. Response to Various Inhibitors” value (C. autoethanogenum [1]; 2.5 Hours, added 24 h after inoculation, listed as C-19)?
The value was 0.41.

And the “O.D. Response to Various Inhibitors” value (C. autoethanogenum [1]; [6])?
Its value is 0.44.

And the “O.D. Response to Various Inhibitors” value (C. autoethanogenum [1]; [7])?
The value was 1.15.

What about the “O.D. Response to Various Inhibitors” value (C. autoethanogenum [1]; 24.5 Hours, added 24 h after inoculation, listed as C-19) of the same molecule?
Its value is 1.18.

And the “O.D. Response to Various Inhibitors” value (C. autoethanogenum [1]; 30.5 Hours, added 24 h after inoculation)?
Its value is 1.32.

And the “O.D. Response to Various Inhibitors” value (C. autoethanogenum [1]; 30.5 Hours, added 24 h after inoculation, listed as C-19)?
Its value is 1.28.

What about the “O.D. Response to Various Inhibitors” value (C. autoethanogenum [1]; 47.5 Hours, added 24 h after inoculation) of the same molecule?
Its value is 1.73.

What about the “O.D. Response to Various Inhibitors” value (C. autoethanogenum [1]; 47.5 Hours, added 24 h after inoculation, listed as C-19) of the same molecule?
Its value is 1.75.

With `O=C(O)c1cccc(C(F)(F)F)c1` [3-(Trifluoromethyl)benzoate] as the molecule, how does the “Dose-Response Slope” value (acyl-CoA dehydrogenases) read?
The value was 6.

`NC(=O)c1ccc(F)c(C(F)(F)F)c1` [3-Trifluoromethyl-4-fluorobenzamide] was tested. Which “Dose-Response Slope” value (acyl-CoA dehydrogenases) did it give?
Its value is 5.

How did the “Dose-Response Slope” value (acyl-CoA dehydrogenases) turn out when `COc1ccc(C(N)=O)cc1C(F)(F)F` [3-Trifluoromethyl-4-methoxybenzamide] was run?
Its value is 12.

`CCOC(=O)c1ccccc1C(F)(F)F` [Ethyl 2-(trifluoromethyl)benzoate] was tested. Which “Dose-Response Slope” value (acyl-CoA dehydrogenases) did it give?
The value was 8.

How did the “Optical density valuation of C. autoethanogenum” value (C. autoethanogenum [2]; 10 ppm(m)) turn out when `O=C(O)/C=C/C(F)(F)F` [G, 4,4,4-trifluorocrotonic acid] was run?
Its value is “+ (bacterial growth to an OD of approximately 2 or above)”.

What about the “Optical density valuation of C. autoethanogenum” value (C. autoethanogenum [2]; 100 ppm(m)) of the same molecule?
The value was “+ (bacterial growth to an OD of approximately 2 or above)”.

What about the “Optical density valuation of C. autoethanogenum” value (C. autoethanogenum [2]; 500 ppm(m)) of the same molecule?
The value was “+ (bacterial growth to an OD of approximately 2 or above)”.

And the “Optical density valuation of C. autoethanogenum” value (C. autoethanogenum [2]; 1000 ppm(m))?
Its value is “+/− (to an optical density in a range of 0.5 to 1.5)”.

What about the “Optical density valuation of C. autoethanogenum” value (C. autoethanogenum [2]; 5000 ppm(m)) of the same molecule?
Its value is “− (failure of bacterial growth to reach an optical density of approximately 0.5)”.

And the “Optical density valuation of C. autoethanogenum” value (C. autoethanogenum [2]; 10000 ppm(m))?
Its value is “− (failure of bacterial growth to reach an optical density of approximately 0.5)”.

What about the “Optical density valuation of C. tyrobutyricum” value ([3]; 100 ppm(m)) of the same molecule?
The value was “+ (bacterial growth to an OD of approximately 1.8 or above)”.

And the “Optical density valuation of C. tyrobutyricum” value ([3]; 500 ppm(m))?
The value was “+ (bacterial growth to an OD of approximately 1.8 or above)”.

What about the “Optical density valuation of C. tyrobutyricum” value ([3]; 1000 ppm(m)) of the same molecule?
The value was “+ (bacterial growth to an OD of approximately 1.8 or above)”.

For `CCOC(=O)/C=C(/C)N` [H, ethyl 3-aminocrotonate], which “Optical density valuation of C. autoethanogenum” value (C. autoethanogenum [2]; 10 ppm(m)) is on record?
The value was “+ (bacterial growth to an OD of approximately 2 or above)”.

And the “Optical density valuation of C. autoethanogenum” value (C. autoethanogenum [2]; 100 ppm(m))?
Its value is “+ (bacterial growth to an OD of approximately 2 or above)”.

What about the “Optical density valuation of C. autoethanogenum” value (C. autoethanogenum [2]; 500 ppm(m)) of the same molecule?
The value was “+ (bacterial growth to an OD of approximately 2 or above)”.

What about the “Optical density valuation of C. autoethanogenum” value (C. autoethanogenum [2]; 1000 ppm(m)) of the same molecule?
The value was “+ (bacterial growth to an OD of approximately 2 or above)”.

And the “Optical density valuation of C. autoethanogenum” value (C. autoethanogenum [2]; 5000 ppm(m))?
Its value is “+ (bacterial growth to an OD of approximately 2 or above)”.

What about the “Optical density valuation of C. autoethanogenum” value (C. autoethanogenum [2]; 10000 ppm(m)) of the same molecule?
The value was “+ (bacterial growth to an OD of approximately 2 or above)”.
